This note sets out measurements from paper PMC4294347, “Therapeutic potential of ERK5 targeting in triple negative breast cancer” (Oncotarget, 2014).

What is called IC50 is the concentration that inhibits the measured activity by half.

For this test, the target named is T1, ERK5 (Homo sapiens, UniProt Q13164).
T1 construct: gene MAPK7; endogenous ERK5 immunoprecipitated from EGF-treated MDA-MB231 cells
Nature of the test: in vitro autophosphorylation kinase assay on immunoprecipitated active ERK5, Western blot mobility-shift readout. Type of test: biochemical. Background: Immunoblotting shows a protein as a band on a membrane.

T1 sequence (Q13164 2-816): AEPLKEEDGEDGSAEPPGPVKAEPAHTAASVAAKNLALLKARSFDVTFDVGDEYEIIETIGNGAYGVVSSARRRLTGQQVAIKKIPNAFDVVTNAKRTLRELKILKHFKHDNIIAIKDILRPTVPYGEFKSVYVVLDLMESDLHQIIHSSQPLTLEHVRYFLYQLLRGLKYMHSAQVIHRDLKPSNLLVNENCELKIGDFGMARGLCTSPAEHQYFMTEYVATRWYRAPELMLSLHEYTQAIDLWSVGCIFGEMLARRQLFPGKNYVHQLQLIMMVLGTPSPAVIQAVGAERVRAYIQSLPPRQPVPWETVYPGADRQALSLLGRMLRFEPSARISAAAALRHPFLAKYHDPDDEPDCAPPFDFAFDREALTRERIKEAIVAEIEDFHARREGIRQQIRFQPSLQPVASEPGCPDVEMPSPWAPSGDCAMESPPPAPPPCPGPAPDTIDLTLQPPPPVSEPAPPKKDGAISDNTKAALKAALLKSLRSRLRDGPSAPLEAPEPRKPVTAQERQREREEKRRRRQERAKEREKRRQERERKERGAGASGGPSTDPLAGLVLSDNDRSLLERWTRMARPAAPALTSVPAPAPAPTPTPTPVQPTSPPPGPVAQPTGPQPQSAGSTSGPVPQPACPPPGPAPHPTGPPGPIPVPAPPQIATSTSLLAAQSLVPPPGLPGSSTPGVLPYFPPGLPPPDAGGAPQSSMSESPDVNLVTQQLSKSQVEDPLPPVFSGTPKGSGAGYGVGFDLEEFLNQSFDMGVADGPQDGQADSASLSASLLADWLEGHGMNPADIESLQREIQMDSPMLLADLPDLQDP

Regarding `CN1C/C=C/CCOc2cccc(c2)-c2ccnc(n2)Nc2cccc(c2)C1` [TG02], the IC50 turned out to be 100 nM.
